# Test results from PubChem BioAssay (NCI).
#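 Following 48 hours of exposure in 96-well plates, responses at five concentrations were used to interpolate endpoints linearly. At the GI50, growth is halved. TGI: concentration producing complete growth inhibition.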
# What was measured:
# Experiment in all cases: growth of human tumour cells (NCI), 48 h
# [1] = system: TK-10 renal
# [2] = system: DU-145 prostate
# [3] = system: NCI-H226 lung
# [4] = system: NCI-H522 lung
# [5] = system: CCRF-CEM leukemia
# [6] = system: SR leukemia
# [7] = system: T-47D breast
# [8] = system: SNB-19 CNS
# [9] = system: HCC-2998 colon
# [10] = system: HOP-62 NSCLC
# [11] = system: CAKI-1 renal
# [12] = system: SK-OV-3 ovarian
# [13] = system: UACC-257 melanoma
# [14] = system: M14 melanoma
# [15] = system: COLO 205 colon
# [16] = system: OVCAR-8 ovarian
# [17] = system: BT-549 breast
# [18] = system: SK-MEL-2 melanoma
# [19] = system: SF-268 CNS
# [20] = system: HL-60(TB) leukemia
# [21] = system: A498 renal
# [22] = system: MOLT-4 leukemia
# [23] = system: HCT-15 colon
# [24] = system: K-562 leukemia
# [25] = system: EKVX NSCLC
# [26] = system: SF-295 CNS
# [27] = system: IGROV1 ovarian
# [28] = system: SF-539 CNS
# [29] = system: SN12C renal
# [30] = system: UO-31 renal
# [31] = system: MDA-MB-231 breast
# [32] = system: SNB-75 CNS
# [33] = system: U251 CNS
# [34] = system: HT29 colon
# [35] = system: OVCAR-3 ovarian
# [36] = system: NCI-H23 lung
# [37] = system: RPMI-8226 leukemia
# [38] = system: MALME-3M melanoma
# [39] = system: UACC-62 melanoma
# [40] = system: SK-MEL-28 melanoma
# [41] = system: HOP-92 NSCLC
# [42] = system: A549 NSCLC
# [43] = system: MDA-MB-435
# [44] = system: KM12 colon
# [45] = system: MDA-N
# [46] = system: OVCAR-5 ovarian
# [47] = system: HCT-116 colon
# [48] = system: ACHN renal
# [49] = system: RXF 393 renal
# [50] = system: PC-3 prostate
# [51] = system: SW-620 colon
# [52] = system: MCF7 breast
# [53] = system: NCI/ADR-RES ovarian
# [54] = system: OVCAR-4 ovarian
# [55] = system: 786-0 renal
# [56] = system: LOX IMVI melanoma
# [57] = system: NCI-H460 lung
# [58] = system: SK-MEL-5 melanoma
# [59] = system: HS 578T breast
smiles,measurement,setting,value
Cc1ccc(C(=O)c2[nH]c(Nc3ccc(Cl)cc3)c(C(=S)Nc3ccccc3)c2N)cc1,TGI,[1],16.8 µM
same,TGI,[2],24.8 µM
same,TGI,[3],43.4 µM
same,TGI,[4],23.6 µM
same,TGI,[5],> 100 µM
same,TGI,[6],10.7 µM
same,TGI,[7],> 100 µM
same,TGI,[8],21.9 µM
same,TGI,[9],5.31 µM
same,TGI,[10],15.3 µM
same,TGI,[11],30.6 µM
same,TGI,[12],27.3 µM
same,TGI,[13],43.7 µM
same,TGI,[14],35.8 µM
same,TGI,[15],2.84 µM
same,TGI,[16],18.1 µM
same,TGI,[17],20.5 µM
same,TGI,[18],31.7 µM
same,TGI,[19],23.3 µM
same,TGI,[20],> 100 µM
same,TGI,[21],27.9 µM
same,TGI,[22],32.6 µM
same,TGI,[23],28.5 µM
same,TGI,[24],24 µM
same,TGI,[25],19 µM
same,TGI,[26],5.27 µM
same,TGI,[27],15 µM
same,TGI,[28],17.7 µM
same,TGI,[29],27.4 µM
same,TGI,[30],23 µM
same,TGI,[31],24.2 µM
same,TGI,[32],7.14 µM
same,TGI,[33],9.02 µM
same,TGI,[34],16.8 µM
same,TGI,[35],56.8 µM
same,TGI,[36],9.1 µM
same,TGI,[37],18 µM
same,TGI,[38],19.8 µM
same,TGI,[39],28.1 µM
same,TGI,[40],14.5 µM
same,TGI,[41],28 µM
same,TGI,[42],5.29 µM
same,TGI,[43],19.7 µM
same,TGI,[44],18.8 µM
same,TGI,[45],20.6 µM
same,TGI,[46],40.9 µM
same,TGI,[47],11 µM
same,TGI,[48],10.7 µM
same,TGI,[49],17.4 µM
same,TGI,[50],23.3 µM
same,TGI,[51],37.7 µM
same,TGI,[52],33.6 µM
same,TGI,[53],17.1 µM
same,TGI,[54],4.32 µM
same,TGI,[55],6.4 µM
same,TGI,[56],14.3 µM
same,TGI,[57],15.4 µM
COc1ccc(N2C(=O)C3c4[nH]c5cc(Cl)ccc5c4C4CCC(C(C)(C)C)CC4C3C2=O)cc1 (configuration not stated),TGI,[1],> 100 µM
same,TGI,[2],> 100 µM
same,TGI,[3],> 100 µM
same,TGI,[4],> 100 µM
same,TGI,[5],> 100 µM
same,TGI,[6],43.6 µM
same,TGI,[7],> 100 µM
same,TGI,[8],> 100 µM
same,TGI,[9],> 100 µM
same,TGI,[10],> 100 µM
same,TGI,[12],> 100 µM
same,TGI,[58],> 100 µM
same,TGI,[13],> 100 µM
same,TGI,[14],> 100 µM
same,TGI,[15],> 100 µM
same,TGI,[16],> 100 µM
same,TGI,[17],> 100 µM
same,TGI,[19],> 100 µM
same,TGI,[20],69.4 µM
same,TGI,[22],> 100 µM
same,TGI,[23],> 100 µM
same,TGI,[59],> 100 µM
same,TGI,[24],> 100 µM
same,TGI,[25],> 100 µM
same,TGI,[26],> 100 µM
same,TGI,[27],> 100 µM
same,TGI,[28],> 100 µM
same,TGI,[29],> 100 µM
same,TGI,[30],> 100 µM
same,TGI,[31],> 100 µM
same,TGI,[32],> 100 µM
same,TGI,[33],> 100 µM
same,TGI,[34],> 100 µM
same,TGI,[35],> 100 µM
same,TGI,[36],> 100 µM
same,TGI,[37],> 100 µM
same,TGI,[39],> 100 µM
same,TGI,[40],> 100 µM
same,TGI,[42],> 100 µM
same,TGI,[43],> 100 µM
same,TGI,[44],> 100 µM
same,TGI,[45],> 100 µM
same,TGI,[47],> 100 µM
same,TGI,[48],> 100 µM
same,TGI,[49],> 100 µM
same,TGI,[50],> 100 µM
same,TGI,[51],> 100 µM
same,TGI,[52],> 100 µM
same,TGI,[53],> 100 µM
same,TGI,[54],> 100 µM
same,TGI,[55],> 100 µM
same,TGI,[57],> 100 µM
[O]=[W](=[O])([OH])[OH],GI50,[1],> 100 µM
same,TGI,[1],> 100 µM
same,GI50,[2],> 100 µM
same,TGI,[2],> 100 µM
same,GI50,[3],> 100 µM
same,TGI,[3],> 100 µM
same,GI50,[4],> 100 µM
same,TGI,[4],> 100 µM
same,GI50,[5],> 100 µM
same,TGI,[5],> 100 µM
same,GI50,[6],> 100 µM
same,TGI,[6],> 100 µM
same,GI50,[7],> 100 µM
same,TGI,[7],> 100 µM
same,GI50,[8],> 100 µM
same,TGI,[8],> 100 µM
same,GI50,[9],> 100 µM
same,TGI,[9],> 100 µM
same,GI50,[11],> 100 µM
same,TGI,[11],> 100 µM
same,GI50,[58],> 100 µM
same,TGI,[58],> 100 µM
same,GI50,[13],> 100 µM
same,TGI,[13],> 100 µM
same,GI50,[14],> 100 µM
same,TGI,[14],> 100 µM
same,GI50,[15],> 100 µM
same,TGI,[15],> 100 µM
same,GI50,[16],> 100 µM
same,TGI,[16],> 100 µM
same,GI50,[17],> 100 µM
same,TGI,[17],> 100 µM
same,GI50,[18],> 100 µM
same,TGI,[18],> 100 µM
same,GI50,[19],> 100 µM
same,TGI,[19],> 100 µM
same,GI50,[20],> 100 µM
same,TGI,[20],> 100 µM
same,GI50,[21],> 100 µM
same,TGI,[21],> 100 µM
same,GI50,[22],> 100 µM
same,TGI,[22],> 100 µM
same,GI50,[23],> 100 µM
same,TGI,[23],> 100 µM
same,GI50,[24],> 100 µM
same,TGI,[24],> 100 µM
same,GI50,[26],> 100 µM
same,TGI,[26],> 100 µM
same,GI50,[27],> 100 µM
same,TGI,[27],> 100 µM
same,GI50,[28],> 100 µM
same,TGI,[28],> 100 µM
same,GI50,[29],> 100 µM
same,TGI,[29],> 100 µM
same,GI50,[30],> 100 µM
same,TGI,[30],> 100 µM
same,GI50,[31],> 100 µM
same,TGI,[31],> 100 µM
same,GI50,[32],> 100 µM
same,TGI,[32],> 100 µM
same,GI50,[33],> 100 µM
same,TGI,[33],> 100 µM
same,GI50,[34],> 100 µM
same,TGI,[34],> 100 µM
same,GI50,[35],> 100 µM
same,TGI,[35],> 100 µM
same,GI50,[36],> 100 µM
same,TGI,[36],> 100 µM
same,GI50,[37],> 100 µM
same,TGI,[37],> 100 µM
same,GI50,[38],> 100 µM
same,TGI,[38],> 100 µM
same,GI50,[39],> 100 µM
same,TGI,[39],> 100 µM
same,GI50,[40],> 100 µM
same,TGI,[40],> 100 µM
same,GI50,[41],> 100 µM
same,TGI,[41],> 100 µM
same,GI50,[42],> 100 µM
same,TGI,[42],> 100 µM
same,GI50,[43],> 100 µM
same,TGI,[43],> 100 µM
same,GI50,[44],> 100 µM
same,TGI,[44],> 100 µM
same,GI50,[45],> 100 µM
same,TGI,[45],> 100 µM
same,GI50,[46],> 100 µM
same,TGI,[46],> 100 µM
same,GI50,[47],> 100 µM
same,TGI,[47],> 100 µM
same,GI50,[48],> 100 µM
same,TGI,[48],> 100 µM
same,GI50,[49],> 100 µM
same,TGI,[49],> 100 µM
same,GI50,[50],> 100 µM
same,TGI,[50],> 100 µM
same,GI50,[51],> 100 µM
same,TGI,[51],> 100 µM
same,GI50,[52],> 100 µM
same,TGI,[52],> 100 µM
same,GI50,[53],> 100 µM
same,TGI,[53],> 100 µM
same,GI50,[54],> 100 µM
same,TGI,[54],> 100 µM
same,GI50,[55],> 100 µM
same,TGI,[55],> 100 µM
same,GI50,[57],> 100 µM
same,TGI,[57],> 100 µM
